Source: ChEMBL document CHEMBL1201862, “PubChem BioAssay data set” (2004)
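Where inhibition never reached the appropriate level, the endpoint shown equals the highest concentration tested. Otherwise, values were interpolated linearly from a five-concentration, 48-hour dose response in 96-well plates. Abbreviation: GI50, concentration required for 50% inhibition of growth.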 Calls of active or inactive are those of the source. No stated cut-off is given here; in the data, active = GI50 up to about 1.1 µM and inactive = higher.

What was measured:
Assay in all cases: NCI anticancer screen, dose series, 48 h
786-0 = test system: 786-0
A498 = test system: A498
A549 = test system: A549
ACHN = test system: ACHN
BT-549 = test system: BT-549
CAKI-1 = test system: CAKI-1
CCRF-CEM = test system: CCRF-CEM
COLO 205 = test system: COLO 205
DU-145 = test system: DU-145
EKVX = test system: EKVX
HCC 2998 = test system: HCC 2998
HCT-116 = test system: HCT-116
HCT-15 = test system: HCT-15
HL-60 = test system: HL-60
HOP-62 = test system: HOP-62
HOP-92 = test system: HOP-92
HT-29 = test system: HT-29
Hs-578T = test system: Hs-578T
IGROV-1 = test system: IGROV-1
K562 = test system: K562
KM12 = test system: KM12
LOX IMVI = test system: LOX IMVI
M14 = test system: M14
MCF7 = test system: MCF7
MDA-MB-231 = test system: MDA-MB-231
MDA-MB-435 = test system: MDA-MB-435
MDA-N = test system: MDA-N
MOLT-4 = test system: MOLT-4
Malme-3M = test system: Malme-3M
NCI-H226 = test system: NCI-H226
NCI-H23 = test system: NCI-H23
NCI-H460 = test system: NCI-H460
NCI-H522 = test system: NCI-H522
NCI/ADR-RES = test system: NCI/ADR-RES
OVCAR-3 = test system: OVCAR-3
OVCAR-4 = test system: OVCAR-4
OVCAR-5 = test system: OVCAR-5
OVCAR-8 = test system: OVCAR-8
PC-3 = test system: PC-3
RPMI-8226 = test system: RPMI-8226
RXF 393 = test system: RXF 393
SF-268 = test system: SF-268
SF-295 = test system: SF-295
SF-539 = test system: SF-539
SK-MEL-28 = test system: SK-MEL-28
SK-MEL-2 = test system: SK-MEL-2
SK-MEL-5 = test system: SK-MEL-5
SK-OV-3 = test system: SK-OV-3
SN12C = test system: SN12C
SNB-19 = test system: SNB-19
SNB-75 = test system: SNB-75
SR = test system: SR
SW-620 = test system: SW-620
T47D = test system: T47D
TK-10 = test system: TK-10
U-251 = test system: U-251
UACC-257 = test system: UACC-257
UACC-62 = test system: UACC-62
UO-31 = test system: UO-31

**Q.** Which GI50 (786-0) does the source give for `C[C@@H]1[C@@H](C)C(c2ccccc2)O[Si]1(C(C)(C)C)C(C)(C)C` (some centres undefined) here?
**A.** 16 µM (inactive)

**Q.** What about the GI50 (A498) of the same molecule?
**A.** 16.6 µM (inactive)

**Q.** What about the GI50 (A549) of the same molecule?
**A.** 16.6 µM (inactive)

**Q.** And the GI50 (ACHN)?
**A.** 17.7 µM (inactive)

**Q.** What about the GI50 (BT-549) of the same molecule?
**A.** 24.4 µM (inactive)

**Q.** What about the GI50 (CAKI-1) of the same molecule?
**A.** 17.1 µM (inactive)

**Q.** What about the GI50 (CCRF-CEM) of the same molecule?
**A.** 18.9 µM (inactive)

**Q.** What about the GI50 (COLO 205) of the same molecule?
**A.** 15.7 µM (inactive)

**Q.** What about the GI50 (DU-145) of the same molecule?
**A.** 17.6 µM (inactive)

**Q.** What about the GI50 (EKVX) of the same molecule?
**A.** 17.1 µM (inactive)

**Q.** What about the GI50 (HCC 2998) of the same molecule?
**A.** 19.8 µM (inactive)

**Q.** What about the GI50 (HCT-116) of the same molecule?
**A.** 15.5 µM (inactive)

**Q.** And the GI50 (HCT-15)?
**A.** 23.1 µM

**Q.** What about the GI50 (HL-60) of the same molecule?
**A.** > 10 µM (inactive)

**Q.** What about the GI50 (HOP-62) of the same molecule?
**A.** 17.5 µM (inactive)

**Q.** And the GI50 (HOP-92)?
**A.** 21.5 µM (inactive)

**Q.** And the GI50 (HT-29)?
**A.** 15.2 µM (inactive)

**Q.** And the GI50 (Hs-578T)?
**A.** 20.9 µM (inactive)

**Q.** What about the GI50 (IGROV-1) of the same molecule?
**A.** 16.7 µM (inactive)

**Q.** And the GI50 (K562)?
**A.** 22.3 µM (inactive)

**Q.** What about the GI50 (KM12) of the same molecule?
**A.** 16.3 µM (inactive)

**Q.** And the GI50 (LOX IMVI)?
**A.** 16.9 µM (inactive)

**Q.** What about the GI50 (M14) of the same molecule?
**A.** 18.2 µM (inactive)

**Q.** What about the GI50 (MCF7) of the same molecule?
**A.** 18.1 µM (inactive)

**Q.** And the GI50 (MDA-MB-231)?
**A.** 16.9 µM (inactive)

**Q.** What about the GI50 (MDA-MB-435) of the same molecule?
**A.** 25.6 µM (inactive)

**Q.** And the GI50 (MDA-N)?
**A.** 22.5 µM (inactive)

**Q.** And the GI50 (MOLT-4)?
**A.** 16 µM (inactive)

**Q.** What about the GI50 (Malme-3M) of the same molecule?
**A.** 9.71 µM (inactive)

**Q.** What about the GI50 (NCI-H226) of the same molecule?
**A.** 18.1 µM (inactive)

**Q.** What about the GI50 (NCI-H23) of the same molecule?
**A.** 15.6 µM (inactive)

**Q.** And the GI50 (NCI-H460)?
**A.** 17.4 µM (inactive)

**Q.** What about the GI50 (NCI-H522) of the same molecule?
**A.** 15.1 µM (inactive)

**Q.** And the GI50 (NCI/ADR-RES)?
**A.** 18.1 µM (inactive)

**Q.** What about the GI50 (OVCAR-3) of the same molecule?
**A.** 16.5 µM (inactive)

**Q.** What about the GI50 (OVCAR-4) of the same molecule?
**A.** 37.8 µM (inactive)

**Q.** And the GI50 (OVCAR-5)?
**A.** 17.6 µM (inactive)

**Q.** What about the GI50 (OVCAR-8) of the same molecule?
**A.** 17.8 µM (inactive)

**Q.** What about the GI50 (PC-3) of the same molecule?
**A.** 17.1 µM (inactive)

**Q.** What about the GI50 (RPMI-8226) of the same molecule?
**A.** 20.6 µM (inactive)

**Q.** And the GI50 (RXF 393)?
**A.** 17.1 µM (inactive)

**Q.** What about the GI50 (SF-268) of the same molecule?
**A.** 25.2 µM (inactive)

**Q.** And the GI50 (SF-295)?
**A.** 16.6 µM (inactive)

**Q.** What about the GI50 (SF-539) of the same molecule?
**A.** 17 µM (inactive)

**Q.** What about the GI50 (SK-MEL-28) of the same molecule?
**A.** 24.9 µM (inactive)

**Q.** And the GI50 (SK-MEL-2)?
**A.** 15.8 µM (inactive)

**Q.** And the GI50 (SK-MEL-5)?
**A.** 17.4 µM (inactive)

**Q.** And the GI50 (SK-OV-3)?
**A.** 26.5 µM (inactive)

**Q.** And the GI50 (SN12C)?
**A.** 17.4 µM (inactive)

**Q.** What about the GI50 (SNB-19) of the same molecule?
**A.** 13.8 µM (inactive)

**Q.** What about the GI50 (SNB-75) of the same molecule?
**A.** 16 µM (inactive)

**Q.** What about the GI50 (SR) of the same molecule?
**A.** 11.8 µM (inactive)

**Q.** What about the GI50 (SW-620) of the same molecule?
**A.** 18.8 µM (inactive)

**Q.** And the GI50 (T47D)?
**A.** 19.1 µM (inactive)

**Q.** And the GI50 (TK-10)?
**A.** 16.4 µM (inactive)

**Q.** And the GI50 (U-251)?
**A.** 17 µM (inactive)

**Q.** And the GI50 (UACC-257)?
**A.** 17.1 µM (inactive)

**Q.** And the GI50 (UACC-62)?
**A.** 19.1 µM (inactive)

**Q.** What about the GI50 (UO-31) of the same molecule?
**A.** 17.2 µM (inactive)
